# Experimental data from article PMC2683906 (Chemical research in toxicology, 2009).
# Experiments:
# [1] = system: globin; conditions: rats and mice exposed to 1,3-[2,3-14C]-butadiene; cited from earlier work
# [2] = cited from earlier work
# [3] = 6.25 to 1000 ppm, mice and rats; cited from earlier work
# [4] = rodents given BDD or BMO; cited from earlier work
# [5] = cited from earlier work; remark: listed apart in the source
# [6] = buffer, pH 7.4
# [7] = buffer, pH 9
# [8] = buffer, pH 9; remark: listed apart in the source
smiles,measurement,setting,value
"C=[14CH][14CH]=C [1,3-[2,3-^14C]-butadiene]",Total globin radioactivity characterized as trihydroxybutyl adducts,[1],1−2%
"C=CC=C [BD, 1,3-Butadiene]",International Agency for Research on Cancer classification,[2],are carcinogenic to humans
same,National Toxicology Program classification,[2],known to be a human carcinogen
same,Tumor formation after long-term inhalation exposure,[3],tumor formation at multiple organ sites
"C=CC(O)CO (centres unmarked) [BDD, 3-butene-1,2-diol]",Amount of BDD detected in the urine,[4],< 5%
same,HMVK-derived mercapturates as share of the administered BDD dose,[5],4−8%
"C=CC(=O)CO [HMVK, hydroxymethylvinyl ketone]",Half-life of HMVK in the absence of nucleophilic amino acids,[6],"a Half-life of HMVK when incubated at a concentration of 3 mM at pH 7.4, 37 °C in the absence of nucleophilic amino acids was determined to be 710 min. ND, not determined. Half-lives were estimated assuming pseudo-first order kinetics. Data is representative of typical experimental values."
same,"Estimated half-life of HMVK, HMVK + NAL",[7],45 min
same,Time at which all of HMVK was consumed,"HMVK 3 mM, NAC 6 mM, pH 7.4, 37 °C",0.5 h
same,"Estimated half-life of HMVK, HMVK + NAC","buffer, pH 7.4",instantaneous
same,"Estimated half-life of HMVK, HMVK + L-valinamide",[8],13.5 min
